Experiment [1] concerns NCI-H23. The experiment in a line: Cell proliferation assay (cell panel, MTS). The following applies: Homo sapiens, 72 h; NCI-H23, Lung, BRAF WT, KRAS MT, 3 days. Format: cell-based. As for the experimental part: (§1) The proliferation assays against a cell panel were performed as described in ref.[18] Briefly, the cells were treated with DMSO or multiple concentrations of AZ304 for 3 days. The cell growth was determined using the CellTiter 96 Aqueous One Cell Proliferation Assay (Promega, Madison, WI). […] The assays were done in triplicate across different plates.
(§2) Anti-proliferative activity of AZ304 against a panel of cell lines with different BRAF and RAS genetic status. […] Cell growth was determined by MTS assay.

For experiment [2], the system named is SK-BR-3. The experiment can be described thus: Cell proliferation assay (cell panel, MTS). To be noted: Homo sapiens, 72 h; SK-BR-3, Breast, BRAF WT, RAS WT, 3 days. Format: cell-based. As for the experimental part:
as §1, §2

Experiment [3] concerns SK-MEL-28. The experiment can be described thus: Cell proliferation assay (cell panel, MTS). It is filed as cell-based. To be noted: Homo sapiens, 72 h; SK-MEL-28, Melanoma, BRAF V600E, RAS WT, 3 days. As for the experimental part: as §1, §2
Experiment [4] relates to HT29. The experiment in a line: Cell proliferation assay (cell panel, MTS). It is filed as cell-based. The following applies: Homo sapiens, HT-29, 72 h; HT29, Colon, BRAF V600E HT, RAS WT, 3 days. As for the experimental part:
as §1, §2

Experiment [5] relates to Calu-6. The experiment can be described thus: Cell proliferation assay (cell panel, MTS). It is filed as cell-based. The following applies: Homo sapiens, 72 h; Calu-6, Lung, BRAF WT, KRAS MT, 3 days. As to the method:
as §1, §2

For experiment [6], the target named is CDK2 (Homo sapiens, UniProt P24941). The experiment in a line: AlphaScreen kinase assay (Rb peptide). Format: biochemical. To be noted: ATP Km. As for the experimental part:
(§3) For RAF kinases, detailed assay information was described in ref.[18] Briefly, the kinase activity of BRAF WT, BRAF V600E, or CRAF was measured using an AlphaScreen assay (Perkin Elmer, MA) monitoring MEK1/2 phosphorylation at Ser217/221. For CDK2 and CDK4 kinases, activity was also measured by AlphaScreen, monitoring phosphorylation of biotin Rb peptide at Ser780. Similarly, MAP3K7, CSF1R and JAK2 kinase activity was measured by phosphorylation of their biotinylated substrates MKK6 kinase dead protein at Ser271/Thr275, or tyrosine phosphorylation of pEY or Tyk2 Tyr1054/1055 peptides, respectively. CSK, IGF1R, EGFR, FGFR1 and SRC kinase activity was measured using a sandwich ELISA detecting phosphorylated poly EAY peptide with a HRP conjugated phosphotyrosine antibody and TMB substrate, while p38 kinase activity was measured by monitoring phosphorylation of MBP protein with radiolabeled ^33P-ATP in a filter binding format. All assays were screened under respective ATP Km conditions and inhibitor IC50s were derived from either 5 (RAF kinases, CDK2, CDK4, MAP3K7, JAK2), 10 (CSK, IGF1R, EGFR, FGFR1, SRC) or 11 (p38, CSF1R) point compound dose response.
(In general: Bead proximity is the source of the signal in Alpha formats.)

Experiment [7] concerns the target CDK4 (Homo sapiens, UniProt P11802). The experiment can be described thus: AlphaScreen kinase assay (Rb peptide). The following applies: ATP Km. It is filed as biochemical. As for the experimental part: as §3
Experiment [8] deals with JAK2 (Homo sapiens, UniProt O60674). The experiment in a line: AlphaScreen kinase assay. Format: biochemical. The following applies: ATP Km. As for the experimental part:
as §3

For experiment [9], the target named is MAP3K7 (Homo sapiens, UniProt O43318). The experiment in a line: AlphaScreen kinase assay. It is filed as biochemical. The following applies: ATP Km. As for the experimental part:
as §3

For experiment [10], the target named is CSF1R (Homo sapiens, UniProt P07333). The experiment in a line: AlphaScreen kinase assay. Format: biochemical. The following applies: ATP Km. As to the method:
as §3

Experiment [11] has as its system A549 cells. The experiment can be described thus: Western blot p-ERK and p-p38. Format: cell-based, human. As for the experimental part: (§4) For western-blotting in A375, A549 and MC-F7 cell lines, the detailed method was described in ref.[18] […] For western-blot in selected CRC cell lines, the cells were collected after treatment for indicated time and washed twice with cold PBS. Then cells were lysed in 1% Triton lysis buffer (50 mmol/L Tris-HCl, pH 7.4, 10 mmol/L EDTA, 100 mmol/L NaF, 150 mmol/L NaCl, 1% Triton X-100, 1 mmol/L PMSF 1 mmol/L Na3VO4 and 2 μg/mL aprotinin). After sonication and centrifugation, samples were quantified with the Lowry method. Next, all the protein samples were boiled at 95 °C for 5 min with 3× sampling buffer. After that, all the lysate samples were resolved by SDS polyacrylamide gel electrophoresis (SDS-PAGE) and followed by western blotting which means electronically transferred to nitrocellulose membranes. After blocking with 5% skim milk in TBST buffer (10 mM Tris-HCl pH 7.4, 150 mM NaCl, 0.1% Tween 20) at room temperature for 1 h, the blots were incubated with indicated antibodies shaking for 2 h, then overnight at 4 °C. Then the blots were washed four times with TBST buffer, and then incubated with secondary antibodies for 30 min at room temperature. After washing for another four times, the protein bands were detected with enhanced chemiluminescence reagent (SuperSignal Western Pico Chemiluminescent Substrate; Pierce, Rockford, IL, USA) and visualised with the Electrophoresis Gel Imaging Analysis System (DNR Bio-Imaging Systems, Jerusalem, Israel).
(§5) Cells were incubated with DMSO or AZ304 for 75 min and p-ERK levels were determined using a p-ERK antibody based ELISA. […] Cells were incubated with DMSO or AZ304 (±EGF) for 75 min and p-ERK levels were determined using a p-ERK antibody based ELISA. […] (A375: BRAF V600E, A549: RAS MT; MC-F7: BRAF/RAS WT)
A general note: Immunoblotting shows a protein as a band on a membrane.

Experiment [12] has as its system MC-F7 cells. The experiment can be described thus: Western blot p-ERK and p-p38. It is filed as cell-based, human. To be noted: MC-F7 (BRAF/RAS WT). As to the method: as §4, §5
Experiment [13] concerns the target BRAF (Homo sapiens, UniProt P15056). The experiment can be described thus: AlphaScreen kinase assay (MEK1/2 phosphorylation). Format: biochemical. To be noted: wild type BRAF, ATP Km. As for the experimental part:
as §3

Experiment [14] addresses BRAFV600E (Homo sapiens, UniProt P15056, V600E). The experiment can be described thus: AlphaScreen kinase assay (MEK1/2 phosphorylation). It is filed as biochemical. To be noted: ATP Km. As to the method: as §3
For experiment [15], the target named is CRAF (Homo sapiens, UniProt P04049). The experiment can be described thus: AlphaScreen kinase assay (MEK1/2 phosphorylation). Format: biochemical. To be noted: wild type CRAF, ATP Km. As for the experimental part:
as §3

In experiment [16] the test system is p-ERK in SK-MEL-31 cells. The experiment can be described thus: SK-MEL-31 p-ERK cellular assay. It is filed as cell-based. To be noted: Homo sapiens, 1.25 h, read-out: EC50, reduction of p-ERK.

For orientation: GI50 means the concentration giving 50% growth inhibition. A higher GI50 goes with less potent growth inhibition. The IC50 is the concentration at which inhibition is half-maximal. The low end stands for inhibition by little substance, the high end for a need for much substance. By EC50 is commonly meant the midpoint of the concentration-response curve.

Like-named read-outs stand apart in the source and are kept apart here.

Sequence of CRAF (P04049 349-609 limits assumed): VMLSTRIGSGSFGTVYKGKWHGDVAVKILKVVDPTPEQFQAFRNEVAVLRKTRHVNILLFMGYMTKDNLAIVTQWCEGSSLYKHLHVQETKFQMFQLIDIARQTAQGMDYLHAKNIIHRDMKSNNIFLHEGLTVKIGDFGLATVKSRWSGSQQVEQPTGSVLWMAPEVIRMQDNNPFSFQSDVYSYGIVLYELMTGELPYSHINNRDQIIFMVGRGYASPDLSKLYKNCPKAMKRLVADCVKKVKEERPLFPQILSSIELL
Sequence of JAK2 (O60674 whole entry, species assumed): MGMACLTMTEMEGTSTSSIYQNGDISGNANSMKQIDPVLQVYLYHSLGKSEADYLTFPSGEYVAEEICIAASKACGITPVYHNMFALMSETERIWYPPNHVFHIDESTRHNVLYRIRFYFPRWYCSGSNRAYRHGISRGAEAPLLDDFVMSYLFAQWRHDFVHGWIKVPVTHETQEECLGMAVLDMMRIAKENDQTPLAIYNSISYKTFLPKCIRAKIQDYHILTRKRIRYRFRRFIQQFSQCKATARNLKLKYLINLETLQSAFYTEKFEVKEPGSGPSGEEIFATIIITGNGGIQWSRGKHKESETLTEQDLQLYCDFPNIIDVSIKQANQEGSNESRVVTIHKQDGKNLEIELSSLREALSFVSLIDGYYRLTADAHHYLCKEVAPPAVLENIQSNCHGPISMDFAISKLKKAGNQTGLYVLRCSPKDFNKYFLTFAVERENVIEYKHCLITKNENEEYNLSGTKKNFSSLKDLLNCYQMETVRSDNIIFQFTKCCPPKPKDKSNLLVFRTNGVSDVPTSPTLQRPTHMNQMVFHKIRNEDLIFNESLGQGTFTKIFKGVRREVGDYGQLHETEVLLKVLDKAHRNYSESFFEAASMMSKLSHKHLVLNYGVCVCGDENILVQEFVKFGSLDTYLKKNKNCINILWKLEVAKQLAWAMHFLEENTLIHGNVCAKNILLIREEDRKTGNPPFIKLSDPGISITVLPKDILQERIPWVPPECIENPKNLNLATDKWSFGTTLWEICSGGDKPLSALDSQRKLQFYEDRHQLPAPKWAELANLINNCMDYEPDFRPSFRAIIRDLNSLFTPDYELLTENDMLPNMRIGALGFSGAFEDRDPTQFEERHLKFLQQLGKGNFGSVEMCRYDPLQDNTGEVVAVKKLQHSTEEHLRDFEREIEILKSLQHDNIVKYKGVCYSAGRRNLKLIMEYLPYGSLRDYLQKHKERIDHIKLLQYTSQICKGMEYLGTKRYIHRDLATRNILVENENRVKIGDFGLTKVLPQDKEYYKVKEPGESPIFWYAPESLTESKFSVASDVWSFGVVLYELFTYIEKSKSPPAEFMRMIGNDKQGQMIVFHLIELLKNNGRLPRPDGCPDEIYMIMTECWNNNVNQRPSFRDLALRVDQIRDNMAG
Sequence of CDK4 (P11802 whole entry, species assumed): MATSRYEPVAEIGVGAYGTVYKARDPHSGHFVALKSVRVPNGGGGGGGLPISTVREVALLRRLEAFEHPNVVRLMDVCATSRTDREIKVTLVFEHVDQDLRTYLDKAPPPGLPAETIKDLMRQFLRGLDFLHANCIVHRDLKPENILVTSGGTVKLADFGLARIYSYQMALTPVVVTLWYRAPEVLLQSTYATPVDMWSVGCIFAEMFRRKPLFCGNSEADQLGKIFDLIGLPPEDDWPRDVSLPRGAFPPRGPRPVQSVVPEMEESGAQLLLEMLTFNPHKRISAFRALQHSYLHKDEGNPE
Sequence of CDK4 (P24385 whole entry partner, species assumed): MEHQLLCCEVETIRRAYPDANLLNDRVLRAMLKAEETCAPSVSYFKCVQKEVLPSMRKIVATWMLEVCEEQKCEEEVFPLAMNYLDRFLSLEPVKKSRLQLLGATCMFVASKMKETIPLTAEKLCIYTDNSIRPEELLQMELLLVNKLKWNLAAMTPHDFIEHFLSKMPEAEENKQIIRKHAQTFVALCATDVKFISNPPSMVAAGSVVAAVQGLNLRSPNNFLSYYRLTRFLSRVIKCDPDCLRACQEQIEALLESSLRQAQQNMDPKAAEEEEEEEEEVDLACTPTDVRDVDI
Sequence of MAP3K7 (O43318 whole entry, species assumed): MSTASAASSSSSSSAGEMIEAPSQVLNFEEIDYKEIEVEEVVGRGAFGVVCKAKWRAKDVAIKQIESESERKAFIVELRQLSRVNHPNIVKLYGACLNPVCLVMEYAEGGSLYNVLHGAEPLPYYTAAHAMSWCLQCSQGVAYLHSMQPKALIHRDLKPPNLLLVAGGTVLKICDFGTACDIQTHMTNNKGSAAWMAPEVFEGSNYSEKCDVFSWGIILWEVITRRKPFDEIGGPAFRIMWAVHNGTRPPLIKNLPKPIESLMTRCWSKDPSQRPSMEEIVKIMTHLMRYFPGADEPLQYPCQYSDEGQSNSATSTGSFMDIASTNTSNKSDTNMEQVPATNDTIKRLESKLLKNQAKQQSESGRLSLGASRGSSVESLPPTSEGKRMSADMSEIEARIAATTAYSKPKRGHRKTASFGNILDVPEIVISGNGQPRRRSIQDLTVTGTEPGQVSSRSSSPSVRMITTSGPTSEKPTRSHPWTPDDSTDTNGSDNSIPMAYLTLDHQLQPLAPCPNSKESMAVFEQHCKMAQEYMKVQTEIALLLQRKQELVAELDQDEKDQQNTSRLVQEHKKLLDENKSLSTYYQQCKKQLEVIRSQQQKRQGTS
Sequence of MAP3K7 (Q15750 whole entry partner, species assumed): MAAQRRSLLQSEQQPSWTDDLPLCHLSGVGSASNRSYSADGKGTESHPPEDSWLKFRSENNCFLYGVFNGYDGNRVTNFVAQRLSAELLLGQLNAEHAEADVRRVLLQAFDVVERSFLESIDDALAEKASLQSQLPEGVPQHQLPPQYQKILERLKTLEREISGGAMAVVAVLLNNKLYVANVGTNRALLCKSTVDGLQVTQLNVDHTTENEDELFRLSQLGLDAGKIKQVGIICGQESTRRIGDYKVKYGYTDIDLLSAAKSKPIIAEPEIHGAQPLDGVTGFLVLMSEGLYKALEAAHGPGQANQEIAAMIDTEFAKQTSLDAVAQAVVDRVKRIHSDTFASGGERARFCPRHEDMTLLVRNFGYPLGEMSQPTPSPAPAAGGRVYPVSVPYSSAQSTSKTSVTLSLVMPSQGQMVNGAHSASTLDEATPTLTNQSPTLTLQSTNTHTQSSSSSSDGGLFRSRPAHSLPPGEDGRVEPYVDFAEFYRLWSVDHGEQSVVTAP
Sequence of BRAF (P15056 457-717 limits assumed): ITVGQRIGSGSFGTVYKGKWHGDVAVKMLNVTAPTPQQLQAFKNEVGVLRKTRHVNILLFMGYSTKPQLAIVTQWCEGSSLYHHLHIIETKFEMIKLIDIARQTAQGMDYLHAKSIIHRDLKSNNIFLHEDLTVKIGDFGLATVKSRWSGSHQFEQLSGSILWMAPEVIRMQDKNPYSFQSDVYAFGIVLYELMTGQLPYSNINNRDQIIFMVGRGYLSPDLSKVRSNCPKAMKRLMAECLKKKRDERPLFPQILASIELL
Sequence of BRAFV600E (P15056 457-717 V600E limits assumed): as the sequence (P15056 457-717 limits assumed) above, with V144E counted along it
Sequence of CSF1R (P07333 20-972, species assumed): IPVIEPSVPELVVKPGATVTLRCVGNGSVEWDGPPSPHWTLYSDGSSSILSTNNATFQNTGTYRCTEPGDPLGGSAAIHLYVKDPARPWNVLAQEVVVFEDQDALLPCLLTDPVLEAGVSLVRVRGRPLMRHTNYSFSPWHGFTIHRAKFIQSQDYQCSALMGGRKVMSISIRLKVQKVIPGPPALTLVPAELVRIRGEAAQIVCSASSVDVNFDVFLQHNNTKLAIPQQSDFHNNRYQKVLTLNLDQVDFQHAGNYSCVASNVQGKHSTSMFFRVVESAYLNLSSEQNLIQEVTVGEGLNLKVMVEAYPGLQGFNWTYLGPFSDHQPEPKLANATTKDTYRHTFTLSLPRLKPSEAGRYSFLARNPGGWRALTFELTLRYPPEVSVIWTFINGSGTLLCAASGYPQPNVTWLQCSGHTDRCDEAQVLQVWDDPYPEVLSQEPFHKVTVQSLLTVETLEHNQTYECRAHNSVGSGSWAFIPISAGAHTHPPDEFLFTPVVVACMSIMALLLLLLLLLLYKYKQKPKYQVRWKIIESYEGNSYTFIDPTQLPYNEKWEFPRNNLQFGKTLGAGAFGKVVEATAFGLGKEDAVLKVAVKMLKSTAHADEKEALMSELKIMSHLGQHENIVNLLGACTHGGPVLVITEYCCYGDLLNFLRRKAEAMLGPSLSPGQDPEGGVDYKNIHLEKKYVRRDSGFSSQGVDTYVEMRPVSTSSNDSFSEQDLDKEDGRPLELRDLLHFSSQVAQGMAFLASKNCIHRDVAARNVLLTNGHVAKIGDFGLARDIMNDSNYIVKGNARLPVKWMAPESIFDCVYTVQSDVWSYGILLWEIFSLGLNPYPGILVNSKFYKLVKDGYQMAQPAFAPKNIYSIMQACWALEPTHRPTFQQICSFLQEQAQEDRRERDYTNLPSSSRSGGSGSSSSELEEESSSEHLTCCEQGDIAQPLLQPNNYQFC

`COc1ccc2c(Nc3cc(NC(=O)c4cccc(C(C)(C)C#N)c4)ccc3C)ncnc2c1` [AZ304]: the GI50 in experiment [1] is 3990 nM; in [2] it was 11600 nM; in experiment [3], 500 nM; in experiment [4], 510 nM; in experiment [5], 5510 nM. For the same compound, the IC50 was > 10000 nM in [6]; > 10000 nM in experiment [7]; > 10000 nM in experiment [8]; 6400 nM in [9]; 35 nM in experiment [10]; 79 nM in experiment [13]. Moreover, the results for the IC50 in experiment [14] and in experiment [15] were 38 nM and 68 nM, respectively. For the same compound, the “effect on p-p38” value is “potently inhibited p-p38” in experiment [11] (A549 (RAS MT), 75 min) and “potently inhibited p-p38” in experiment [12] (75 min). For the same compound, the “effect on p-ERK” value is listed as “concentration dependent reduction of p-ERK” in [11] (A549 (wild type BRAF, RAS MT), 75 min, 0.1, 1, 10 and 100 fold of A375 p-ERK EC50); “concentration dependent reduction of p-ERK” in experiment [12] (75 min, 0.1, 1, 10 and 100 fold of A375 p-ERK EC50). Further, the EC50 in experiment [16] (SK-MEL-31 (wild type BRAF melanoma), 75 min, without EGF) stood at 60 nM; in experiment [16] (SK-MEL-31, 75 min, with EGF stimulation) it was 52 nM.
